Source: patent US20220281848A1, “PYRAZOLE-SUBSTITUTED PYRROLIDINONES AS HERBICIDES” (FMC Corporation, priority 2019, published 2022)

Test system: plants
Assay: Test D pre-emergence, other plants of Tables D1 and D3
Format: in vivo
Conditions: preemergent, 20 DAA
Protocol: A formulation containing 50 g/L of the test chemical was prepared by dissolving the active ingredient in a mixture of organic solvents and emulsifier, details of which are provided in the table. This formulation was then mixed with a small, variable amount of acetone to aid dissolution, before addition of a 0.2% v/v aqueous solution of an adjuvant, as the aqueous diluent, to form an aqueous spray solution which contains a predetermined concentration of the active ingredient.
This aqueous spray solution was then sprayed onto plants including maize and wheat that had been seed treated with a herbicide safener, after one day's cultivation (for pre-emergence) or after about 12 days' cultivation (for post-emergence). The plants were grown from seeds sown in standard soil, placed in a glasshouse under controlled conditions (at 24/18° C. or 20/16° C., day/night; 16 h light; 65% humidity). After spray application the plants were then grown in a glasshouse under the same conditions and watered twice daily. After 15 d for post-emergence and 20 DAA for pre-emergence the test was evaluated (100=total damage to plant; 0=no damage to plant).

COc1c(F)cccc1NC(=O)C1C(=O)N(C)CC1c1cc(C(F)(F)F)n(C)n1 (racemic) [Compound 18]
80: damage to plant (100=total damage to plant; 0=no damage to plant), BRAPL (rate 130) | damage to plant (100=total damage to plant; 0=no damage to plant), BRAPL (rate 250) | damage to plant (100=total damage to plant; 0=no damage to plant), DIGSA (rate 30) | damage to plant (100=total damage to plant; 0=no damage to plant), SETFA (rate 60)
90: damage to plant (100=total damage to plant; 0=no damage to plant), BRAPL (rate 500) | damage to plant (100=total damage to plant; 0=no damage to plant), DIGSA (rate 60) | damage to plant (100=total damage to plant; 0=no damage to plant), DIGSA (rate 130) | damage to plant (100=total damage to plant; 0=no damage to plant), DIGSA (rate 250) | damage to plant (100=total damage to plant; 0=no damage to plant), ECHCG (rate 130) | damage to plant (100=total damage to plant; 0=no damage to plant), ECHCG (rate 250) | damage to plant (100=total damage to plant; 0=no damage to plant), ECHCG (rate 500) | damage to plant (100=total damage to plant; 0=no damage to plant), SETFA (rate 130) | damage to plant (100=total damage to plant; 0=no damage to plant), SETFA (rate 250) | damage to plant (100=total damage to plant; 0=no damage to plant), SETFA (rate 500)
0: damage to plant (100=total damage to plant; 0=no damage to plant), ABUTH (rate 15) | damage to plant (100=total damage to plant; 0=no damage to plant), ABUTH (rate 30) | damage to plant (100=total damage to plant; 0=no damage to plant), ABUTH (rate 60) | damage to plant (100=total damage to plant; 0=no damage to plant), ABUTH (rate 130) | damage to plant (100=total damage to plant; 0=no damage to plant), AMARE (rate 15) | damage to plant (100=total damage to plant; 0=no damage to plant), AMARE (rate 30) | damage to plant (100=total damage to plant; 0=no damage to plant), AMARE (rate 60) | damage to plant (100=total damage to plant; 0=no damage to plant), AMARE (rate 130) | damage to plant (100=total damage to plant; 0=no damage to plant), AMARE (rate 250) | damage to plant (100=total damage to plant; 0=no damage to plant), AMARE (rate 500) | damage to plant (100=total damage to plant; 0=no damage to plant), BIDPI (rate 15) | damage to plant (100=total damage to plant; 0=no damage to plant), BIDPI (rate 30) | damage to plant (100=total damage to plant; 0=no damage to plant), BIDPI (rate 60) | damage to plant (100=total damage to plant; 0=no damage to plant), BIDPI (rate 130) | damage to plant (100=total damage to plant; 0=no damage to plant), BIDPI (rate 250) | damage to plant (100=total damage to plant; 0=no damage to plant), BIDPI (rate 500) | damage to plant (100=total damage to plant; 0=no damage to plant), CYPES (rate 15) | damage to plant (100=total damage to plant; 0=no damage to plant), CYPES (rate 30) | damage to plant (100=total damage to plant; 0=no damage to plant), CYPES (rate 60) | damage to plant (100=total damage to plant; 0=no damage to plant), CYPES (rate 130) | damage to plant (100=total damage to plant; 0=no damage to plant), CYPES (rate 250) | damage to plant (100=total damage to plant; 0=no damage to plant), CYPES (rate 500) | damage to plant (100=total damage to plant; 0=no damage to plant), DIGSA (rate 15) | damage to plant (100=total damage to plant; 0=no damage to plant), ECHCG (rate 15) | damage to plant (100=total damage to plant; 0=no damage to plant), ELEIN (rate 15) | damage to plant (100=total damage to plant; 0=no damage to plant), ELEIN (rate 30) | damage to plant (100=total damage to plant; 0=no damage to plant), ELEIN (rate 60) | damage to plant (100=total damage to plant; 0=no damage to plant), ELEIN (rate 130) | damage to plant (100=total damage to plant; 0=no damage to plant), ELEIN (rate 250) | damage to plant (100=total damage to plant; 0=no damage to plant), ELEIN (rate 500) | damage to plant (100=total damage to plant; 0=no damage to plant), EPHHL (rate 15) | damage to plant (100=total damage to plant; 0=no damage to plant), EPHHL (rate 30) | damage to plant (100=total damage to plant; 0=no damage to plant), EPHHL (rate 60) | damage to plant (100=total damage to plant; 0=no damage to plant), EPHHL (rate 130) | damage to plant (100=total damage to plant; 0=no damage to plant), GLXMA (rate 15) | damage to plant (100=total damage to plant; 0=no damage to plant), GLXMA (rate 30) | damage to plant (100=total damage to plant; 0=no damage to plant), GLXMA (rate 60) | damage to plant (100=total damage to plant; 0=no damage to plant), GLXMA (rate 130) | damage to plant (100=total damage to plant; 0=no damage to plant), GLXMA (rate 250) | damage to plant (100=total damage to plant; 0=no damage to plant), GLXMA (rate 500) | damage to plant (100=total damage to plant; 0=no damage to plant), IPOHE (rate 15) | damage to plant (100=total damage to plant; 0=no damage to plant), IPOHE (rate 30) | damage to plant (100=total damage to plant; 0=no damage to plant), IPOHE (rate 60) | damage to plant (100=total damage to plant; 0=no damage to plant), IPOHE (rate 130) | damage to plant (100=total damage to plant; 0=no damage to plant), IPOHE (rate 250) | damage to plant (100=total damage to plant; 0=no damage to plant), IPOHE (rate 500) | damage to plant (100=total damage to plant; 0=no damage to plant), ORYSA (rate 15) | damage to plant (100=total damage to plant; 0=no damage to plant), ORYSA (rate 30) | damage to plant (100=total damage to plant; 0=no damage to plant), ORYSA (rate 60) | damage to plant (100=total damage to plant; 0=no damage to plant), ORYSA (rate 130) | damage to plant (100=total damage to plant; 0=no damage to plant), ORYSA (rate 250) | damage to plant (100=total damage to plant; 0=no damage to plant), ORYSA (rate 500) | damage to plant (100=total damage to plant; 0=no damage to plant), PANMI (rate 15) | damage to plant (100=total damage to plant; 0=no damage to plant), PANMI (rate 30) | damage to plant (100=total damage to plant; 0=no damage to plant), PANMI (rate 60) | damage to plant (100=total damage to plant; 0=no damage to plant), PANMI (rate 130) | damage to plant (100=total damage to plant; 0=no damage to plant), PANMI (rate 250) | damage to plant (100=total damage to plant; 0=no damage to plant), PANMI (rate 500) | damage to plant (100=total damage to plant; 0=no damage to plant), SETFA (rate 15) | damage to plant (100=total damage to plant; 0=no damage to plant), SETFA (rate 30) | damage to plant (100=total damage to plant; 0=no damage to plant), SORVU (rate 15) | damage to plant (100=total damage to plant; 0=no damage to plant), SORVU (rate 30) | damage to plant (100=total damage to plant; 0=no damage to plant), SORVU (rate 60) | damage to plant (100=total damage to plant; 0=no damage to plant), SORVU (rate 130) | damage to plant (100=total damage to plant; 0=no damage to plant), SORVU (rate 250)
10: damage to plant (100=total damage to plant; 0=no damage to plant), ABUTH (rate 250) | damage to plant (100=total damage to plant; 0=no damage to plant), BRAPL (rate 15) | damage to plant (100=total damage to plant; 0=no damage to plant), EPHHL (rate 250) | damage to plant (100=total damage to plant; 0=no damage to plant), SORVU (rate 500)
20: damage to plant (100=total damage to plant; 0=no damage to plant), EPHHL (rate 500)
30: damage to plant (100=total damage to plant; 0=no damage to plant), ABUTH (rate 500) | damage to plant (100=total damage to plant; 0=no damage to plant), ECHCG (rate 30)
100: damage to plant (100=total damage to plant; 0=no damage to plant), DIGSA (rate 500)
70: damage to plant (100=total damage to plant; 0=no damage to plant), BRAPL (rate 60) | damage to plant (100=total damage to plant; 0=no damage to plant), ECHCG (rate 60)
60: damage to plant (100=total damage to plant; 0=no damage to plant), BRAPL (rate 30)
